Test results reported in article PMC9697131, “Agomelatine, Ketamine and Vortioxetine Attenuate Energy Cell Metabolism—In Vitro Study” (International Journal of Molecular Sciences, 2022).
“And” between values parts separate entries of the source, which are not always exact repeats. Identical values can stand only once. Like-named read-outs stand apart in the source and are kept apart here.

Tests used:
[1] = tested on: complex I-linked respiration, pig brain mitochondria; test: Complex I-linked mitochondrial respiration, high-resolution respirometry; type: biochemical; conditions: for effect on complex I-linked respiration (in words): titration 0.125–100 µM
Description: (§1) Pig brains were obtained from a slaughterhouse. Mitochondrial fraction isolation and purification from brain cortex were performed as previously described. Briefly, grey matter from pig brains was homogenized and crude mitochondrial fraction was isolated and then centrifuged on the sucrose gradient to obtain purified mitochondrial fraction. The freshly purified mitochondria were kept on ice until the assays were performed and were used for measurements of the mitochondrial oxygen consumption rate, measurements of ATP and ROS formation. Frozen mitochondria (stored at −70 °C) were used for the following enzyme activity measurements: ETC complexes, citrate synthase (CS) and malate dehydrogenase (MDH) activity.
The mitochondrial oxygen consumption rate was measured by high-resolution respirometry using Oxygraph-2k (Oroboros Instruments Corp, Innsbruck, Austria). The final protein concentration was 0.05–0.14 mg/mL and the reaction mixture consisted of 2 mM malate, 5 mM pyruvate, 1.25 mM ADP and […] for complex I-linked respiration; 1.25 mM ADP, 0.75 mM MgCl2, 1 µM rotenone and 10 mM succinate for complex II-linked respiration. The following […] simultaneous measurements were assessed: a titration with the drug to the final drug concentrations of 0.125–100 µM in one chamber and a titration with a drug-free control (DMSO) in the second oxygraph chamber.
The respiration rate was expressed as pmol O2 consumed/second/mg of a protein.
(§2) The inhibition of respiration rate and MAO activity were analyzed by A four-parameter logistic regression with Prism software (GraphPad Software, San Diego, CA, USA) was used to analyze the respiratory rate inhibition and activity of MAO. […] The IC50 represents the drug concentration required to inhibit the difference between the baseline and the residual value of the mitochondrial oxygen flux or MAO activity by 50%.

[2] = molecular target: T1, malate dehydrogenase (MDH) (Sus scrofa, UniProt P00346); test: Malate dehydrogenase activity; type: biochemical, pig; conditions: mean, N=3
T1 construct: Frozen mitochondria (stored at −70 °C) were used for the following enzyme activity measurements: ETC complexes, citrate synthase (CS) and malate dehydrogenase (MDH) activity; from tissue; host or cells: pig brain cortex, purified mitochondrial fraction (frozen, sonicated)
T1 sequence (P00346 25-338): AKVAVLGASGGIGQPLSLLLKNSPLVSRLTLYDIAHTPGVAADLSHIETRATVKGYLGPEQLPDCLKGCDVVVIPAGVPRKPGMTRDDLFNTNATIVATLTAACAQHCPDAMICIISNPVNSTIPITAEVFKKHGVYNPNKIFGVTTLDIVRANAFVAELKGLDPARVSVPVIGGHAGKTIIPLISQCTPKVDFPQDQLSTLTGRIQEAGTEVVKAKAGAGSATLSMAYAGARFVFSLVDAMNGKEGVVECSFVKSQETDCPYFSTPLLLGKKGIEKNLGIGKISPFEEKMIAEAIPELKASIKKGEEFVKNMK
Description: as §1
(§3) Ultrasonication and incubation of mitochondria with the tested drugs for 30 min at 30 °C was performed before measurement with a corresponding drug-free control (DMSO) for every measurement. Mitochondrial enzymes activities were determined spectrophotometrically as absorbance using a GENESYS 180 UV-Vis Spectrophotometer (Thermo Fisher Scientific, Waltham, MA, USA).
The conversion of oxaloacetate to malate was used to measure the activity, and it was measured at 340 nm for 3 min. The reaction was initiated by adding oxaloacetate and nicotinamide adenine dinucleotide (NADH). […]

[3] = tested on: complex I (NADH dehydrogenase); test: Complex I (NADH dehydrogenase) activity, spectrophotometric; type: biochemical; conditions: 100 μM drug, pig brain mitochondria, mean ± SD
Description: as §1, §3
The reaction mixture consisted of KH2PO4, MgCl2 and KCN and the reaction was started by adding decylubiquinone and NADH. The rotenone-sensitive NADH oxidation reaction was measured at 340 nm for 5 min. The final protein concentration was 150 µg/mL and final drugs concentrations 2.5, 5, 10, 50 and 100 µM. Drug-free control (DMSO) was used as a control for each measurement.

MAO-B = molecular target: T2, MAO-B (Sus scrofa, UniProt Q6PLK3); test: MAO-B activity, radiolabeled [14C]PEA substrate; type: biochemical, pig; conditions: for MAO-B Inhibition (type): 0.1–300 µM; for MAO-B Hillslope / MAO-B Residual Activity: mean
T2 construct: from tissue; host or cells: pig brain mitochondria
T2 sequence (Q6PLK3 1-520): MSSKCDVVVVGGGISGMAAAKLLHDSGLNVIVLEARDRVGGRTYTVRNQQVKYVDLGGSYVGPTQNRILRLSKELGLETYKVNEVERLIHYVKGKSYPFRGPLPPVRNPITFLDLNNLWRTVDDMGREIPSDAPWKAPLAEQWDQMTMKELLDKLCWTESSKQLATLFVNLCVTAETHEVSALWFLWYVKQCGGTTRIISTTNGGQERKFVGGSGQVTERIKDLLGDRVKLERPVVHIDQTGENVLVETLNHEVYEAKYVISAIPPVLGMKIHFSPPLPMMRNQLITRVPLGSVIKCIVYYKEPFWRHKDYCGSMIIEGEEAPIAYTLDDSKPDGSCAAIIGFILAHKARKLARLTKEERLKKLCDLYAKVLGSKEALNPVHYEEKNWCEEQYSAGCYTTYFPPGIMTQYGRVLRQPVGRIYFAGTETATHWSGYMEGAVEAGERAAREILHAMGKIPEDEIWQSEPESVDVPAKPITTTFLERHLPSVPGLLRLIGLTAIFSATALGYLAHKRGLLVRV
Description: as §1
Mitochondria in KH buffer at final concentration of 800 µg/mL were preincubated with the tested drugs in a final concentration range of 0.1–300 µM for 60 min at 37 °C. For each measurement, there was a corresponding drug-free control (DMSO). Radiolabeled substrates ([^3H]serotonin for MAO-A and [^14C]PEA for MAO-B) were added to initiate the reaction. The reaction was carried out at 37 °C for 20 min for MAO-A and for 1 min for MAO-B, and the reaction was stopped by hydrochloric acid. The radioactivity of the organic phases of the extracts were measured by liquid scintillation counting (LS 6000IC, Beckman Instruments, Inc., Fullerton, CA, USA).
as §2

[4] = tested on: total H2O2 content, pig brain mitochondria; test: Hydrogen peroxide production, Amplex Red; type: biochemical; conditions: for total H2O2 content (relative to control = 100%): mean ± SD
Description: as §1
Hydrogen peroxide formation was determined using an Amplex Red Hydrogen Peroxide/Peroxidase Assay Kit. The reaction mixture consisted of 27 mM HEPES (pH 7.4), 114 mM sucrose, 100 mM KCl, 1.3 mM K2HPO4, 5 mM malate, 5 mM pyruvate, 1 µM rotenone, 10 mM succinate, 0.75 mM MgCl2, […], 15 µM Amplex Red and horseradish peroxidase 0.09 U/ML. […] The reaction was stopped by the addition of antimycin A. The standard curve for hydrogen peroxide was prepared using H2O2 standard.

SMILES | effect on complex I-linked respiration (in words) [1] | MDH (% of Control) ([2]; 10 μM drug) | MDH (% of Control) ([2]; 100 μM drug) | complex I activity (relative to control = 100%) [3] | MAO-B Inhibition (type) (MAO-B) | MAO-B Inhibition (type) (MAO-B; listed as AGO) | total H2O2 content (relative to control = 100%) ([4]; 10 μM drug) | IC50 (MAO-B) | MAO-B Hillslope (MAO-B; 4 measurements) | MAO-B Residual Activity (MAO-B; 4 measurements) | effect on total H2O2 production (in words) ([4]; 10, 50 and 100 µM) | complex I-linked respiration rate (relative to control = 100%) ([1]; 50 μM drug, mean ± SD) | residual activity of complex I-linked respiration ([1]; four-parameter logistic fit, mean ± SEM) | IC50 ([1]; four-parameter logistic fit, mean ± SEM, listed as VOR) | complex I activity (relative to control = 100%) ([3]; listed as VOR) | IC50 (MAO-B; mean ± SEM, 4 measurements, read-out: MAO-B IC50) | total H2O2 content (relative to control = 100%) ([4]; 50 μM drug) | total H2O2 content (relative to control = 100%) ([4]; 100 μM drug)
COc1ccc2cccc(CCNC(C)=O)c2c1 [agomelatine] | did not affect complex I-linked respiration at all | 101.7 % of Control | 101.0 % of Control | 73.7 ± 5.1% | none | did not affect its activity at all | 130.1 ± 2.7% |  |  |  |  |  |  |  |  |  |  | 
CNC1(c2ccccc2Cl)CCCCC1=O (centres unmarked) [ketamine] | inhibited complex I-linked respiration very weakly | 97.4 % of Control | 101.7 % of Control | 91.2 ± 6.6% | weak |  |  | 51.2 µM | 2.12 | 0.707 rel.u. | no statistically significant effect |  |  |  |  |  |  | 
Cc1ccc(Sc2ccccc2N2CCNCC2)c(C)c1 [vortioxetine] | full inhibitor of complex I-linked respiration | 106.9 % of Control | 100.2 % of Control |  | partial |  |  |  | 2.58 | 0.229 rel.u. |  | 22.5 ± 7.1% | 4.7% | 10.5 µM | 5.5 ± 1.8% and 5.5% | 18.2 µM | 124.5 ± 2.5% | 85.4 ± 5.0%
